In publication PMC10786919, “Design-rules for stapled peptides with in vivo activity and their application to Mdm2/X antagonists” (Nature Communications, 2024):
Converted amounts (≈) assume the structure as drawn. “And” between values parts separate entries of the source, which are not always exact repeats. Identical values can stand only once. Like-named read-outs stand apart in the source and are kept apart here. Positions of bridges follow the written chain, without caps; N, C: chain ends. Non-standard residues stand in square brackets, D forms with d. Residues, ends and D or L forms follow the SMILES beside them. dPhe(4-CF3) = N[C@H](Cc1ccc(C(F)(F)F)cc1)C(=O)O; dTrp(6-F) = N[C@H](Cc1c[nH]c2cc(F)ccc12)C(=O)O; Lys(N3) = [N-]=[N+]=NCCCC[C@H](N)C(=O)O; R8 = C=CCCCCCC[C@@](C)(N)C(=O)O; Cba = N[C@@H](CC1CCC1)C(=O)O; R5 = C=CCCC[C@@](C)(N)C(=O)O; S5 = C=CCCC[C@](C)(N)C(=O)O; βAla = NCCC(=O)O

Key:
human Mdm2 1–125 = molecular target: T1, human Mdm2 1–125 (Homo sapiens, UniProt Q00987); assay: Mdm2 binding by competitive fluorescence anisotropy assay (FP binding)
T1 construct: GST (N); His6 (internal); TEV cleavage site (ENLYFQG) (internal); made in house; host or cells: BL21 (DE3) Rosetta T1R Escherichia coli

[1] = system: p53 responsive β-lactamase reporter in HCT116 cells; assay: cells; format: cell-based
Outline: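 Read-out used the ToxBLAzer Dual Screen for β-lactamase driven by a stably integrated p53-responsive reporter. Assay: 8000 HCT116 cells per well at 0.5% final DMSO. Reported numbers are geometric means over a minimum of three biological replicates.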

[2] = system: Jump-In T-REx CHO-K1 BLA cells; assay: cells; format: cell-based
[3] = Solubility assay (kinetic solubility, PBS pH 7); format: physicochemical
Outline: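 Reference standards were made by diluting the 10 mM stock to 100 µM in acetonitrile:methanol:DMSO 10:80:10. Solubility in µM was calculated as the sample peak area divided by the standard peak area, multiplied by the standard concentration.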

Ca Ski cell line = system: Ca Ski cell line
Outline: (§1)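 Compound dilution series (10 points, 3-fold, 10 mM top stock in DMSO) tested on overnight-plated Ca Ski cells in RPMI1640/10% FBS and on blasticidin-selected p53RE-bla HCT-116 cells in McCoy's 5A; read-out was CellTiter-Glo 2.0 luminescence after room-temperature equilibration.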

[4] = system: CellSensor p53RE-bla HCT-116 Cell Line
Outline: as §1

[5] = FP binding assay KD, Tween-20 <CMC
[6] = 0% FBS 4Hr, read-out: p53 reporter assay EC50
[7] = 10% FBS 16Hr, read-out: p53 reporter assay EC50
[8] = 0% FBS 4Hr, read-out: TETCHO: Counterscreen EC50
[9] = 10% FBS 16Hr, read-out: TETCHO: Counterscreen EC50
[10] = pH 7, aqueous buffer, kinetic from dmso stock, pH 7, PBS, read-out: Solubility
[11] = read-out: Cell Proliferation assay EC50, Ca-Ski, p53 Mut, Ca-Ski
[12] = read-out: Cell Proliferation assay EC50, HCT116, p53 WT, HCT116
[13] = read-out: Cell EC50 (4 hr, 0% FBS), p53 reporter assay, 4 hr, 0% FBS
[14] = read-out: Cell EC50 (16 hr, 10% FBS), p53 reporter assay, 16 hr, 10% FBS
[15] = 4 hours, 0% serum, read-out: TETCHO Counterscreen EC50
[16] = read-out: Proliferation EC50 Ca Ski (Off-target), Ca Ski
[17] = read-out: Proliferation EC50 HCT116 (On-target), HCT116
[18] = 0% FBS 16Hr, read-out: p53 reporter assay EC50
[19] = 10% FBS 4Hr, read-out: p53 reporter assay EC50

T1 sequence (Q00987 with tags, fused parts or gaps): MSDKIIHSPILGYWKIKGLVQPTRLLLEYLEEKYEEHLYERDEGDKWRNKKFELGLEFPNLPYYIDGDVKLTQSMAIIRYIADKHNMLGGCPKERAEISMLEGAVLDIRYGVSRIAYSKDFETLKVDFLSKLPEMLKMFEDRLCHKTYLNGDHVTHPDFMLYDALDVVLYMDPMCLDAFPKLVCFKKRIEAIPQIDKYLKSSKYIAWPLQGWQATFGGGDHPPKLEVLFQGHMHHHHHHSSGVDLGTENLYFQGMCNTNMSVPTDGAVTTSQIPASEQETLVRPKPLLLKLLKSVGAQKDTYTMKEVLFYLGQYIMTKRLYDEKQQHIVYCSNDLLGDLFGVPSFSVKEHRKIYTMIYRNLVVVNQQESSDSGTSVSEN

SMILES | Kd (human Mdm2 1–125; [5]) [µM] | p53 reporter assay % Effect ([1]; 0% FBS 4Hr) [%] | EC50 [1, 6] [µM] | p53 reporter assay % Effect ([1]; 10% FBS 16Hr) [%] | EC50 [1, 7] [µM] | TETCHO: Counterscreen % Effect ([2]; 0% FBS 4Hr) [%] | EC50 [2, 8] [µM] | TETCHO: Counterscreen % Effect ([2]; 10% FBS 16Hr) [%] | EC50 [2, 9] [µM] | solubility kinetic [3, 10] [µM] | EC50 (Ca Ski cell line; [11]) [µM] | EC50 [4, 12] [µM] | EC50 [1, 13] [µM] | EC50 [1, 14] | further results
CC(=O)N[C@@H](C(=O)N[C@H](C)C(=O)N[C@H](Cc1c[nH]c2cc(F)ccc12)C(=O)N[C@H](Cc1ccc(O)cc1)C(=O)N[C@H](C)C(=O)N[C@]1(C)CCCC=CCCC[C@](C)(C(=O)N[C@H](CC(C)C)C(=O)N[C@H](CO)C(=O)N[C@H](C)C(=O)N[C@H](C)C(=O)N[C@H](C)C(=O)N[C@H](C)C(=O)N[C@H](C)C(=O)N[C@H](C)C(=O)N[C@H](C)C(=O)N[C@H](C)C(=O)N[C@H](C)C(N)=O)NC(=O)[C@@H](CCC(N)=O)NC(=O)[C@@H](CCC(=O)O)NC(=O)[C@@H](Cc2ccc(C(F)(F)F)cc2)NC1=O)[C@H](C)O [MP-1230] (Ac-[dT][dA][dTrp(6-F)][dY][dA][R5][dPhe(4-CF3)][dE][dQ][R5][dL][dS][dA][dA][dA][dA][dA][dA][dA][dA][dA]-NH2; staple 6-10) | 0.0217 | 14.85 | > 50.4 | 35.9 | > 50.4 | 16.32 | > 50.4 | -1.934 | > 50.4 | 16 (≈ 35.7 µg/mL) | > 49.8 | 21.4 | – | – | –
CC(=O)N[C@@H](C(=O)N[C@H](C)C(=O)N[C@H](Cc1c[nH]c2cc(F)ccc12)C(=O)N[C@H](Cc1ccc(O)cc1)C(=O)N[C@H](C)C(=O)N[C@]1(C)CCCC=CCCC[C@](C)(C(=O)N[C@H](CC(C)C)C(=O)N[C@H](CO)C(N)=O)NC(=O)[C@@H](CCC(N)=O)NC(=O)[C@@H](CCC(=O)O)NC(=O)[C@@H](Cc2ccc(C(F)(F)F)cc2)NC1=O)[C@H](C)O [MP-797] (Ac-[dT][dA][dTrp(6-F)][dY][dA][R5][dPhe(4-CF3)][dE][dQ][R5][dL][dS]-NH2; staple 6-10) | 0.258 | 74.63 | 3.61 | 8.593 | > 50.4 | 17.03 | > 50.4 | -11.41 | > 50.4 | – | 30.4 | 9.09 | 3.6 | > 50 µM | improvement of cellular activity vs MP-769 ([1]; 0% serum, 4-hour assay): 3 fold; EC50 [2, 15]: > 50 µM; EC50 (Ca Ski cell line; [16]): 30.4 µM; EC50 [4, 17]: 9.1 µM
CC(=O)N[C@@H](C(=O)N[C@H](C)C(=O)N[C@H](Cc1c[nH]c2cc(F)ccc12)C(=O)N[C@H](Cc1ccc(O)cc1)C(=O)N[C@H](C)C(=O)N[C@]1(C)CCCC=CCCC[C@](C)(C(=O)N[C@H](CC(C)C)C(=O)N[C@H](CO)C(=O)N[C@H](C)C(=O)N[C@H](C)C(=O)N[C@H](C)C(N)=O)NC(=O)[C@@H](CCC(N)=O)NC(=O)[C@@H](CCC(=O)O)NC(=O)[C@@H](Cc2ccc(C(F)(F)F)cc2)NC1=O)[C@H](C)O [MP-0230] (Ac-[dT][dA][dTrp(6-F)][dY][dA][R5][dPhe(4-CF3)][dE][dQ][R5][dL][dS][dA][dA][dA]-NH2; staple 6-10) | – | 96.81 | 1.44 | 84.65 | 4.34 | 12.86 | > 50.4 | -3.99 | > 50.4 | 140 (≈ 253 µg/mL) | – | – | – | – | Kd (human Mdm2 1–125; Tween-20 <CMC, read-out: FP binding assay KD): 0.00311 µM
CC(=O)N[C@@H](CCCCN=[N+]=[N-])C(=O)NCCC(=O)N[C@@H](CC(C)C)C(=O)N[C@H](C(=O)N[C@@H](Cc1ccccc1)C(=O)N[C@]1(C)CCCCCCC=CCCC[C@@](C)(C(=O)N[C@@H](CO)C(=O)N[C@@H](C)C(=O)N[C@@H](C)C(N)=O)NC(=O)[C@H](CC2CCC2)NC(=O)[C@H](CCC(N)=O)NC(=O)[C@H](C)NC(=O)[C@H](Cc2c[nH]c3ccccc23)NC(=O)[C@H](Cc2ccc(O)cc2)NC(=O)[C@H](Cc2c[nH]c3ccccc23)NC1=O)[C@@H](C)O [MP-185] (Ac-[Lys(N3)][βAla]LTF[R8]WYWAQ[Cba][S5]SAA-NH2; staple 6-13) | – | – | 0.137 | – | – | 4.64 | > 50 | – | – | 2 (≈ 4.05 µg/mL) | – | – | – | – | Kd (human Mdm2 1–125; read-out: FP binding assay KD): 0.0985 µM; EC50 [1, 18]: 0.214 µM; p53 reporter assay % Effect ([1]; 10% FBS 4Hr): 14.92%; EC50 [1, 19]: 1.86 µM; TETCHO: Counterscreen % Effect ([2]; 0% FBS 16Hr): 9.8%; EC50 (Ca Ski cell line; 72 h): > 49.8 µM; EC50 ([4]; 72 h): 1.97 µM
CC(=O)N[C@@H](CC(C)C)C(=O)N[C@H](C(=O)N[C@@H](Cc1ccccc1)C(=O)N[C@]1(C)CCCCCCC=CCCC[C@@](C)(C(=O)N[C@@H](CO)C(=O)N[C@@H](C)C(=O)N[C@@H](C)C(N)=O)NC(=O)[C@@H](CC2CCC2)NC(=O)[C@H](CC(C)C)NC(=O)[C@H](CCC(N)=O)NC(=O)[C@H](Cc2c[nH]c3ccccc23)NC(=O)[C@H](Cc2ccc(O)cc2)NC(=O)[C@H](CCC(=O)O)NC1=O)[C@@H](C)O [MP-009] | – | – | 8.27 | – | – | 4.797 | > 50.6 | – | – | 79.3 (≈ 142 µg/mL) | – | – | – | – | Kd (human Mdm2 1–125; read-out: FP binding assay KD): 2.22 µM; EC50 [1, 18]: 29.5 µM; EC50 [1, 19]: > 50.6 µM; TETCHO: Counterscreen % Effect ([2]; 0% FBS 16Hr): -1.31%
CC(=O)N[C@@H](C(=O)N[C@H](C)C(=O)N[C@H](Cc1c[nH]c2cc(F)ccc12)C(=O)N[C@H](Cc1ccc(O)cc1)C(=O)N[C@H](C)C(=O)N[C@]1(C)CCCC=CCCC[C@](C)(C(=O)N[C@H](CC(C)C)C(=O)N[C@H](CO)C(=O)N[C@H](C)C(=O)N[C@H](C)C(=O)N[C@H](C)C(=O)N[C@H](C)C(=O)N[C@H](C)C(=O)N[C@H](C)C(N)=O)NC(=O)[C@@H](CCC(N)=O)NC(=O)[C@@H](CCC(=O)O)NC(=O)[C@@H](Cc2ccc(C(F)(F)F)cc2)NC1=O)[C@H](C)O [MP-042] (Ac-[dT][dA][dTrp(6-F)][dY][dA][R5][dPhe(4-CF3)][dE][dQ][R5][dL][dS][dA][dA][dA][dA][dA][dA]-NH2; staple 6-10) | 0.00323 | 91.28 | 0.612 | 98.03 | 0.284 | 12.4 | > 50.4 | 2.411 | > 50.4 | – | 32 | 4.24 | 0.6 | 0.28 µM and 0.3 µM | Kd (human Mdm2 1–125; Binding KD): 0.03 µM; overall improvement of cellular activity compared to initial parent peptide (MP-769) ([1]; 10% serum, 16-hour): > 178 fold; EC50 [2, 15]: > 50 µM; EC50 (Ca Ski cell line; [16]): 31 µM; EC50 [4, 17]: 1.5 µM
CC(=O)N[C@@H](CCCCN=[N+]=[N-])C(=O)NCCC(=O)N[C@@H](CC(C)C)C(=O)N[C@H](C(=O)N[C@@H](Cc1ccccc1)C(=O)N[C@]1(C)CCCCCCC=CCCC[C@@](C)(C(=O)N2CCC[C@@H]2C(=O)N2CCC[C@@H]2C(=O)N2CCC[C@@H]2C(=O)N2CCC[C@@H]2C(=O)N2CCC[C@@H]2C(=O)N2CCC[C@@H]2C(N)=O)NC(=O)[C@H](CC2CCC2)NC(=O)[C@H](CCC(N)=O)NC(=O)[C@H](C)NC(=O)[C@H](Cc2c[nH]c3ccccc23)NC(=O)[C@H](Cc2ccc(O)cc2)NC(=O)[C@H](CCC(=O)O)NC1=O)[C@@H](C)O [MP-896] | 0.0109 | – | – | – | – | -4.745 | > 50.4 | -12.59 | > 50.4 | – | > 49.8 | – | > 50 | > 50 µM | Kd (human Mdm2 1–125; Binding KD): 0.011 µM; p53 reporter assay: % Effect ([1]; 0% FBS 4Hr): 28.91%; EC50 ([1]; 0% FBS 4Hr, read-out: p53 reporter assay: EC50): > 50.4 µM; p53 reporter assay: % Effect ([1]; 10% FBS 16Hr): 32.76%; EC50 ([1]; 10% FBS 16Hr, read-out: p53 reporter assay: EC50): > 50.4 µM; Solubility [3]: P.B.; Solubility ([3]; pH 7, PBS): Poorly Behaved
CC(C)C[C@@H](NC(=O)[C@@]1(C)CCCC=CCCC[C@@](C)(NC(=O)[C@@H](C)NC(=O)[C@@H](Cc2ccc(O)cc2)NC(=O)[C@@H](Cc2c[nH]c3cc(F)ccc23)NC(=O)[C@@H](C)NC(=O)[C@H](N)[C@H](C)O)C(=O)N[C@H](Cc2ccc(C(F)(F)F)cc2)C(=O)N[C@H](CCC(=O)O)C(=O)N[C@H](CCC(N)=O)C(=O)N1)C(=O)N[C@H](CO)C(N)=O [MP-795] (H-[dT][dA][dTrp(6-F)][dY][dA][R5][dPhe(4-CF3)][dE][dQ][R5][dL][dS]-NH2; staple 6-10) | 0.152 | 142.6 | 5.18 | 21.51 | > 50.4 | 35.97 | > 50.4 | 0.2467 | > 50.4 | – | 22.5 | 26.4 | – | – | solubility kinetic ([3]; pH 7, Solubility): 1 µM (≈ 1.55 µg/mL)
